Laboratory results published in PMC7265341, “Quantifying CDK inhibitor selectivity in live cells” (Nature Communications, 2020).
Read-outs that look alike come from different tables or passages of the source.

Assays:
[1] = target: CDK1/Cyclin E1 (Homo sapiens, UniProt P06493); assay: NanoBRET live-cell target engagement, CDK1-NanoLuc/Cyclin E1 in HEK-293; type: binding; conditions: 10µM, read-out: CDK1/E1 Inhibition at 10µM (%)
[2] = target: CDK2/Cyclin E1 (Homo sapiens, UniProt P24941); assay: NanoBRET live-cell target engagement, CDK2-NanoLuc/Cyclin E1 in HEK-293; type: binding; conditions: 10µM, read-out: CDK2/E1 Inhibition at 10µM (%)
[3] = target: CDK3/Cyclin E1 (Homo sapiens, UniProt Q00526); assay: NanoBRET live-cell target engagement, CDK3-NanoLuc/Cyclin E1 in HEK-293; type: binding; conditions: 10µM, read-out: CDK3/E1 Inhibition at 10µM (%)
[4] = target: CDK4/Cyclin D1 (Homo sapiens, UniProt P11802); assay: NanoBRET live-cell target engagement, NanoLuc-CDK4/Cyclin D1 in HEK-293; type: binding; conditions: 10µM, read-out: CDK4/D1 Inhibition at 10µM (%)
[5] = target: CDK5/CDK5R1 (Homo sapiens, UniProt Q00535); assay: NanoBRET live-cell target engagement, CDK5-NanoLuc/CDK5R1 in HEK-293; type: binding; conditions: 10µM, read-out: CDK5/CDK5R1 Inhibition at 10µM (%)
[6] = target: CDK6/Cyclin D1 (Homo sapiens, UniProt Q00534); assay: NanoBRET live-cell target engagement, NanoLuc-CDK6/Cyclin D1 in HEK-293; type: binding; conditions: 10µM, read-out: CDK6/D1 Inhibition at 10µM (%)
[7] = target: CDK7 (Homo sapiens, UniProt P50613); assay: NanoBRET live-cell target engagement, NanoLuc-CDK7 in HEK-293; type: binding; conditions: 10µM, read-out: CDK7 Inhibition at 10µM (%)
[8] = target: CDK8/Cyclin C (Homo sapiens, UniProt P49336); assay: NanoBRET live-cell target engagement, NanoLuc-CDK8/Cyclin C in HEK-293; type: binding; conditions: 10µM, read-out: CDK8/C Inhibition at 10µM (%)
[9] = target: CDK9/Cyclin K (Homo sapiens, UniProt P50750); assay: NanoBRET live-cell target engagement, NanoLuc-CDK9/Cyclin K in HEK-293; type: binding; conditions: 10µM, read-out: CDK9/K Inhibition at 10µM (%)
[10] = target: CDK11B/Cyclin L2 (Homo sapiens, UniProt P21127); assay: NanoBRET live-cell target engagement, CDK11B-NanoLuc/Cyclin L2 in HEK-293; type: binding; conditions: 10µM, read-out: CDK11b/L2 Inhibition at 10µM (%)
[11] = target: CDK12/Cyclin K (Homo sapiens, UniProt Q9NYV4); assay: NanoBRET live-cell target engagement, CDK12-NanoLuc/Cyclin K in HEK-293; type: binding; conditions: 10µM, read-out: CDK12/K Inhibition at 10µM (%)
[12] = target: CDK13/Cyclin K (Homo sapiens, UniProt Q14004); assay: NanoBRET live-cell target engagement, CDK13-NanoLuc/Cyclin K in HEK-293; type: binding; conditions: 10µM, read-out: CDK13/K Inhibition at 10µM (%)
[13] = target: CDK14/Cyclin Y (Homo sapiens, UniProt O94921); assay: NanoBRET live-cell target engagement, CDK14-NanoLuc/Cyclin Y in HEK-293; type: binding; conditions: 10µM, read-out: CDK14/Y Inhibition at 10µM (%)
[14] = target: CDK15/Cyclin Y (Homo sapiens, UniProt Q96Q40); assay: NanoBRET live-cell target engagement, NanoLuc-CDK15/Cyclin Y in HEK-293; type: binding; conditions: 10µM, read-out: CDK15/Y Inhibition at 10µM (%)
[15] = target: CDK16/Cyclin Y (Homo sapiens, UniProt Q00536); assay: NanoBRET live-cell target engagement, CDK16-NanoLuc/Cyclin Y in HEK-293; type: binding; conditions: 10µM, read-out: CDK16/Y Inhibition at 10µM (%)
[16] = target: CDK17/Cyclin Y (Homo sapiens, UniProt Q00537); assay: NanoBRET live-cell target engagement, CDK17-NanoLuc/Cyclin Y in HEK-293; type: binding; conditions: 10µM, read-out: CDK17/Y Inhibition at 10µM (%)
[17] = target: CDK18/Cyclin Y (Homo sapiens, UniProt Q07002); assay: NanoBRET live-cell target engagement, CDK18-NanoLuc/Cyclin Y in HEK-293; type: binding; conditions: 10µM, read-out: CDK18/Y Inhibition at 10µM (%)
[18] = target: CDK20/Cyclin H (Homo sapiens, UniProt Q8IZL9); assay: NanoBRET live-cell target engagement, NanoLuc-CDK20/Cyclin H in HEK-293; type: binding; conditions: 10µM, read-out: CDK20/H Inhibition at 10µM (%)
[19] = target: CDK19/Cyclin C (Homo sapiens, UniProt Q9BWU1); assay: NanoBRET live-cell target engagement, NanoLuc-CDK19/Cyclin C in HEK-293; conditions: read-out: CDK19/C Inhibition at 10µM (%), 10µM
[20] = target: CDK10/Cyclin L2 (Homo sapiens, UniProt Q15131); assay: NanoBRET live-cell target engagement, CDK10-NanoLuc/Cyclin L2 in HEK-293; conditions: read-out: CDK10/L2 Inhibition at 10µM (%), 10µM

Sequence of CDK5/CDK5R1 (Q00535 whole entry): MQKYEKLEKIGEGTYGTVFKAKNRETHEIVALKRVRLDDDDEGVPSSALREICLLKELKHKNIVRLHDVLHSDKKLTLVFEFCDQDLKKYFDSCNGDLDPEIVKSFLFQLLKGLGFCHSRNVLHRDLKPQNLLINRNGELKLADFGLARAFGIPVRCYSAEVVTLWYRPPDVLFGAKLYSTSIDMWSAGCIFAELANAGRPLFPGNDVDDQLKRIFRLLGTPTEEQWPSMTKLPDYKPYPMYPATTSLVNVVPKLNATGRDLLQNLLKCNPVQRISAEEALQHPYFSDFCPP
Sequence of CDK5/CDK5R1 (Q15078 whole entry partner): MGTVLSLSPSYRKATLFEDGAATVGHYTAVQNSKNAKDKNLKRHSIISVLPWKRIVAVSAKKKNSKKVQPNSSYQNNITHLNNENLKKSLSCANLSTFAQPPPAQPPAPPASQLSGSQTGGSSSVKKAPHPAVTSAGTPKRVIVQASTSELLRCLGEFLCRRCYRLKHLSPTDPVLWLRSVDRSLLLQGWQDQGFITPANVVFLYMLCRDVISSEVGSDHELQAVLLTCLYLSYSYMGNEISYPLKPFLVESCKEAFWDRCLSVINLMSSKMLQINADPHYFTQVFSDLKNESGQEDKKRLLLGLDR
Sequence of CDK13/Cyclin K (O75909 whole entry): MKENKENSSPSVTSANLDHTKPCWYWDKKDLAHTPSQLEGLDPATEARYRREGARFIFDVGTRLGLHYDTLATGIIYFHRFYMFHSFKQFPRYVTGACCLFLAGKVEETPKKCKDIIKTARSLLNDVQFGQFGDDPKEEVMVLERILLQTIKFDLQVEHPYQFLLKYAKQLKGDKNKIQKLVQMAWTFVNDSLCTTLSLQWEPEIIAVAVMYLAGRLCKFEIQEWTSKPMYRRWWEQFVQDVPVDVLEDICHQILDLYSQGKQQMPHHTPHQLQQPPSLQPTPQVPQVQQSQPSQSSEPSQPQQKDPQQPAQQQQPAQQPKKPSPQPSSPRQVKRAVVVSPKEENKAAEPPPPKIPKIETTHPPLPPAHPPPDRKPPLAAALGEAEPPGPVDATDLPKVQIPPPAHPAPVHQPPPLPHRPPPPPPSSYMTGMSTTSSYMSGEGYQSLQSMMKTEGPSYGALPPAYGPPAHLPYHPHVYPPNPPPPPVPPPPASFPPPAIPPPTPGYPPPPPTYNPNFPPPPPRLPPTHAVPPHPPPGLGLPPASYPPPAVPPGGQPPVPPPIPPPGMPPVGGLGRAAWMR
Sequence of CDK13/Cyclin K (Q14004 other isoform, or with tags, fused parts or gaps): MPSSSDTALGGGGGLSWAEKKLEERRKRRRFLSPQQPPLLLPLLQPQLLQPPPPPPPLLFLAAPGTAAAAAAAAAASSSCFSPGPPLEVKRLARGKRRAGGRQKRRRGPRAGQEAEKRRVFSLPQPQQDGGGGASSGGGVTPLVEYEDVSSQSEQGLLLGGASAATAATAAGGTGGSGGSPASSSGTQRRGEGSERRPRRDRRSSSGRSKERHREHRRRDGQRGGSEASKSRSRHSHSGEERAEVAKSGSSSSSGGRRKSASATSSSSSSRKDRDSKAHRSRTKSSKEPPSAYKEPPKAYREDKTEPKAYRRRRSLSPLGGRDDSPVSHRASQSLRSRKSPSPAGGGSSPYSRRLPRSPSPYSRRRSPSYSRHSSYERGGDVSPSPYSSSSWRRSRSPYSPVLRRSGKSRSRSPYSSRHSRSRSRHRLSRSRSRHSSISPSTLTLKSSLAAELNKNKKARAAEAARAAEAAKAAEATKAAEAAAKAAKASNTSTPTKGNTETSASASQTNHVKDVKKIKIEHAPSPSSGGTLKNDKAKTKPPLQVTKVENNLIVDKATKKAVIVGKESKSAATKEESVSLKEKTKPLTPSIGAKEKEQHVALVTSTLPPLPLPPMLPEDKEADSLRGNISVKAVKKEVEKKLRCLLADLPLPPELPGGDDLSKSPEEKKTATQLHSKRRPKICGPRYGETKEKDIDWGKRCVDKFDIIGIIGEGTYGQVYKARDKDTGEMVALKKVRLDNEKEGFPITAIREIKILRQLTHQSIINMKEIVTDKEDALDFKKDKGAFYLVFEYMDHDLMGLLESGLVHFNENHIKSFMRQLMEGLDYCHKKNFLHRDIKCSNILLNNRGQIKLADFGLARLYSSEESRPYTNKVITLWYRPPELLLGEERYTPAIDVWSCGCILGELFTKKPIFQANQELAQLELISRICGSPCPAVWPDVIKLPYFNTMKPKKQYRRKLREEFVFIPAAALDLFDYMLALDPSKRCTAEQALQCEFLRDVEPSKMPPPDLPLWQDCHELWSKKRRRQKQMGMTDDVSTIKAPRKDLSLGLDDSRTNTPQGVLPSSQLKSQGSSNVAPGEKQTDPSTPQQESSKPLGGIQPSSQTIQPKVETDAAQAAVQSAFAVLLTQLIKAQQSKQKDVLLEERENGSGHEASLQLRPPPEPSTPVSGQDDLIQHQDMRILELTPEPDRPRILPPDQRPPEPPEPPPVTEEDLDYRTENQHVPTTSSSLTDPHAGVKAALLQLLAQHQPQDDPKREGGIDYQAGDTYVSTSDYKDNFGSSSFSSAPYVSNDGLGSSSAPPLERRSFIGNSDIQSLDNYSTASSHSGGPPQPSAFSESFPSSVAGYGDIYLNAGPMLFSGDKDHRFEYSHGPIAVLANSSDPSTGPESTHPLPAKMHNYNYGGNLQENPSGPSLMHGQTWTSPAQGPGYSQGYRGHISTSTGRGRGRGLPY
Sequence of CDK12/Cyclin K (Q9NYV4 1-1481 isoform Q9NYV4-2): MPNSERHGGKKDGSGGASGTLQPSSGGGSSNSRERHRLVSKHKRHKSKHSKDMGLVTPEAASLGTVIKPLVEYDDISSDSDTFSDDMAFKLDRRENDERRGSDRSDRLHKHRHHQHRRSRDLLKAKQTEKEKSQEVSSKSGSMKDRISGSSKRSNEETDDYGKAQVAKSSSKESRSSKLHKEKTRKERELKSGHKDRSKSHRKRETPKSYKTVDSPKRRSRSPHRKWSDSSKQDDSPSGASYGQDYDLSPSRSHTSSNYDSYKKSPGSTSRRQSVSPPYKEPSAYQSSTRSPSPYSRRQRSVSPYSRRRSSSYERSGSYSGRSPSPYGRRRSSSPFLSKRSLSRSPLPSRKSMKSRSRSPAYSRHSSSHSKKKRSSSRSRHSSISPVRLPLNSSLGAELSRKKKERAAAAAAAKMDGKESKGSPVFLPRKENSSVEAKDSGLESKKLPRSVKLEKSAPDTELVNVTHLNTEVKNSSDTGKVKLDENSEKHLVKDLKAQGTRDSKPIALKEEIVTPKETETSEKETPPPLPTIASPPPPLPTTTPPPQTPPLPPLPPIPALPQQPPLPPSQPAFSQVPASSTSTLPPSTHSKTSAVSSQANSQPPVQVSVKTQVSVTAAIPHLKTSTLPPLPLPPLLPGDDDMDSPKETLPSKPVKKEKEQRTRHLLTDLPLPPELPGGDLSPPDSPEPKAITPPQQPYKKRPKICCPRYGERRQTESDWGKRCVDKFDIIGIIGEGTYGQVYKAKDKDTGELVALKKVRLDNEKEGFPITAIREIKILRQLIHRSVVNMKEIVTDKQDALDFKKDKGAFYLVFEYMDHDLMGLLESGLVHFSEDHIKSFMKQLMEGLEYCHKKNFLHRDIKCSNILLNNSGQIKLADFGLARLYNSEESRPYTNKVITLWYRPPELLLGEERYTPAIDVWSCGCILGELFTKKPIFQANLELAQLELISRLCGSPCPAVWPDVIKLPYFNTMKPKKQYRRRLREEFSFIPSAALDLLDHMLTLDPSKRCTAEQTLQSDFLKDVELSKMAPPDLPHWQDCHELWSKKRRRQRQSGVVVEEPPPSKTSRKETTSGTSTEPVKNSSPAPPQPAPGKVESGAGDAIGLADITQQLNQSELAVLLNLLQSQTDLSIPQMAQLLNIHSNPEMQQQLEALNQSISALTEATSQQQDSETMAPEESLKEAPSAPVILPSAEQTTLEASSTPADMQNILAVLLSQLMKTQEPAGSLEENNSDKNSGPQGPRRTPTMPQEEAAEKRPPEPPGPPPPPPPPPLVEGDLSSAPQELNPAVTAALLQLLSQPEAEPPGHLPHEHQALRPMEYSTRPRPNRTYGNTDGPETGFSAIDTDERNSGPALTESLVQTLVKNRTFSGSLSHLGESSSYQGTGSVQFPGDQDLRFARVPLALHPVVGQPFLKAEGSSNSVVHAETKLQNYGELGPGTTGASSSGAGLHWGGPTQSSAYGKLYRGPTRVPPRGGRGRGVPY
Sequence of CDK12/Cyclin K (O75909 whole entry partner): as the sequence (O75909 whole entry) above
Sequence of CDK3/Cyclin E1 (Q00526 whole entry): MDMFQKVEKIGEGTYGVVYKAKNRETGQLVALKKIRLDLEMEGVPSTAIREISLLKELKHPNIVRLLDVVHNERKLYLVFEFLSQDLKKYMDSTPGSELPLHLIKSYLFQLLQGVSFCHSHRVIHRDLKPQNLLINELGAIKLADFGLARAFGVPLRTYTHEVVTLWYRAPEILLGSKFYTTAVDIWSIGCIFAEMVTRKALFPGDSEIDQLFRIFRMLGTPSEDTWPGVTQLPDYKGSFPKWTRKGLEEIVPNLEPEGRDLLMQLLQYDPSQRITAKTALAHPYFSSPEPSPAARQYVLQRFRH
Sequence of CDK3/Cyclin E1 (P24864 whole entry partner): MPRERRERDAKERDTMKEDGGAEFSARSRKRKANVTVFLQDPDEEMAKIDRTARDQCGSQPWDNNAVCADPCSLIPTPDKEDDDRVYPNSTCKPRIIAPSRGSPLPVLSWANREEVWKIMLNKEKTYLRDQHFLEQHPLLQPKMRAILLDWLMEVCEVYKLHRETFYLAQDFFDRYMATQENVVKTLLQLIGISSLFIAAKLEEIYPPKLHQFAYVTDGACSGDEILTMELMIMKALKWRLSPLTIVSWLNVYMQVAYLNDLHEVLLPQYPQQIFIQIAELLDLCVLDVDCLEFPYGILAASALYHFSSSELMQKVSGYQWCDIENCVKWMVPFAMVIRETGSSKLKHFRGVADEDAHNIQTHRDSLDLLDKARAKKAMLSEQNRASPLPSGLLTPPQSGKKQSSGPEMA

CC(C)[C@H](CO)Nc1nc(Nc2ccc(C(=O)O)c(Cl)c2)c2ncn(C(C)C)c2n1 [Purvalanol B] was tested, and the inhibition at 10 µM ([1]; average of experiments) was 21.2%, the inhibition at 10 µM ([1]; independent experiment 1) was 18.1% and the inhibition at 10 µM ([1]; independent experiment 2) was 24.3%. For the same compound, the inhibition at 10 µM ([2]; average of experiments) was 66.9%, the inhibition at 10 µM ([2]; independent experiment 1) was 79.7% and the inhibition at 10 µM ([2]; independent experiment 2) was 54%. For the same compound, the inhibition at 10 µM ([3]; average of experiments) was 39.4%, the inhibition at 10 µM ([3]; independent experiment 1) was 41.5% and the inhibition at 10 µM ([3]; independent experiment 2) was 37.2%. It also gave an inhibition at 10 µM ([4]; average of experiments) of -37.2%, an inhibition at 10 µM ([4]; independent experiment 1) of 8.3% and an inhibition at 10 µM ([4]; independent experiment 2) of -82.7%. The inhibition at 10 µM ([5]; average of experiments) was 63.7%, the inhibition at 10 µM ([5]; independent experiment 1) was 36.3% and the inhibition at 10 µM ([5]; independent experiment 2) was 91%. For the same compound, the inhibition at 10 µM ([6]; average of experiments) was -0.5%, the inhibition at 10 µM ([6]; independent experiment 1) was 5.9% and the inhibition at 10 µM ([6]; independent experiment 2) was -7%. For the same compound, the inhibition at 10 µM ([7]; average of experiments) was -0.0779%, the inhibition at 10 µM ([7]; independent experiment 1) was -0.361% and the inhibition at 10 µM ([7]; independent experiment 2) was 0.2%. The inhibition at 10 µM ([8]; average of experiments) was 1.6%, the inhibition at 10 µM ([8]; independent experiment 1) was 3.2% and the inhibition at 10 µM ([8]; independent experiment 2) was -0.0599%. For the same compound, the inhibition at 10 µM ([9]; average of experiments) was 8.4%, the inhibition at 10 µM ([9]; independent experiment 1) was -0.3% and the inhibition at 10 µM ([9]; independent experiment 2) was 17.1%. It also gave an inhibition at 10 µM ([10]; average of experiments) of 3.9%, an inhibition at 10 µM ([10]; independent experiment 1) of 7.1% and an inhibition at 10 µM ([10]; independent experiment 2) of 0.8%. For the same compound, the inhibition at 10 µM ([11]; average of experiments) was 1.7%, the inhibition at 10 µM ([11]; independent experiment 1) was 4.5% and the inhibition at 10 µM ([11]; independent experiment 2) was -1.1%. The inhibition at 10 µM ([12]; average of experiments) was 2.3%, the inhibition at 10 µM ([12]; independent experiment 1) was 3% and the inhibition at 10 µM ([12]; independent experiment 2) was 1.7%. The inhibition at 10 µM ([13]; average of experiments) was -0.116%, the inhibition at 10 µM ([13]; independent experiment 1) was -3.3% and the inhibition at 10 µM ([13]; independent experiment 2) was 3.1%. The inhibition at 10 µM ([14]; average of experiments) was 0.0365%, the inhibition at 10 µM ([14]; independent experiment 1) was 4.9% and the inhibition at 10 µM ([14]; independent experiment 2) was -4.9%. For the same compound, the inhibition at 10 µM ([15]; independent experiment 1) was 11.3%, the inhibition at 10 µM ([15]; independent experiment 2) was -5.5% and the inhibition at 10 µM ([16]; average of experiments) was 2.5%. For the same compound, the inhibition at 10 µM ([16]; independent experiment 1) was 0.32%, the inhibition at 10 µM ([16]; independent experiment 2) was 4.7% and the inhibition at 10 µM ([17]; average of experiments) was 5.4%. For the same compound, the inhibition at 10 µM ([17]; independent experiment 1) was -4.7%, the inhibition at 10 µM ([17]; independent experiment 2) was 15.4% and the inhibition at 10 µM ([18]; independent experiment 1) was -3.3%. The inhibition at 10 µM ([18]; independent experiment 2) was -1.2%, the inhibition at 10 µM ([19]; average of experiments) was 8% and the inhibition at 10 µM ([19]; independent experiment 1) was 12.7%. It also gave an inhibition at 10 µM ([19]; independent experiment 2) of 3.4%, an inhibition at 10 µM ([20]; average of experiments) of -1.9% and an inhibition at 10 µM ([20]; independent experiment 1) of -2.4%. It also gave an inhibition at 10 µM ([20]; independent experiment 2) of -1.5%.
